Read-outs that look alike come from different tables or passages of the source. Numbered stars: 1 amine (or outer) side, 2 acyl side, 3 side chain; on linkers, the order of the positions; unused ones are H or OH. Bridge positions count the residues as written; N and C are the ends. Square brackets hold non-standard residues; d marks the D form. Peptide text beside a SMILES is read from it. * marks the point of attachment. TtdsdLys(DOTA)NH2 = NC(=O)[C@@H](CCCCNC(=O)CN1CCN(CC(=O)O)CCN(CC(=O)O)CCN(CC(=O)O)CC1)NC(=O)CCC(=O)NCCCOCCOCCOCCCN*; X3 = O=C(O)CN1CCN(CC(=O)O)CCN(CC(=O)NCCCOCCOCCOCCCN*)CCN(CC(=O)O)CC1; DOTA = O=C(O)CN1CCN(CC(=O)O)CCN(CC(=O)*)CCN(CC(=O)O)CC1; Trp(6-Cl) = N[C@@H](Cc1c[nH]c2cc(Cl)ccc12)C(=O)O; Phe(4-Cl) = N[C@@H](Cc1ccc(Cl)cc1)C(=O)O; X1 = O=C(CC1CCN([*:1])CC1)[*:2]; Cit = NC(=O)NCCC[C@H](N)C(=O)O; NMeL = CN[C@@H](CC(C)C)C(=O)O; d(αMeS) = C[C@@](N)(CO)C(=O)O; Suc = O=C(CCC(=O)[*:2])[*:1]; Tle = CC(C)(C)[C@H](N)C(=O)O; NHCH2CH2NHMe = CNCCN*; Aib = CC(C)(N)C(=O)O
Key:
[1] = target: T1, PSMA-expressing C4-2 cells (Homo sapiens, UniProt Q04609); assay: FACS binding assay (competition with 50 nM PSM-0183); details: read-out: pIC50 [C4-2] CAT (converted)
T1 construct: PSMA-expressing C4-2 cells (ATCC, Cat. No. CRL-3314) were cultured in RPMI-1640; host or cells: C4-2 cells
T1 sequence (Q04609 whole entry): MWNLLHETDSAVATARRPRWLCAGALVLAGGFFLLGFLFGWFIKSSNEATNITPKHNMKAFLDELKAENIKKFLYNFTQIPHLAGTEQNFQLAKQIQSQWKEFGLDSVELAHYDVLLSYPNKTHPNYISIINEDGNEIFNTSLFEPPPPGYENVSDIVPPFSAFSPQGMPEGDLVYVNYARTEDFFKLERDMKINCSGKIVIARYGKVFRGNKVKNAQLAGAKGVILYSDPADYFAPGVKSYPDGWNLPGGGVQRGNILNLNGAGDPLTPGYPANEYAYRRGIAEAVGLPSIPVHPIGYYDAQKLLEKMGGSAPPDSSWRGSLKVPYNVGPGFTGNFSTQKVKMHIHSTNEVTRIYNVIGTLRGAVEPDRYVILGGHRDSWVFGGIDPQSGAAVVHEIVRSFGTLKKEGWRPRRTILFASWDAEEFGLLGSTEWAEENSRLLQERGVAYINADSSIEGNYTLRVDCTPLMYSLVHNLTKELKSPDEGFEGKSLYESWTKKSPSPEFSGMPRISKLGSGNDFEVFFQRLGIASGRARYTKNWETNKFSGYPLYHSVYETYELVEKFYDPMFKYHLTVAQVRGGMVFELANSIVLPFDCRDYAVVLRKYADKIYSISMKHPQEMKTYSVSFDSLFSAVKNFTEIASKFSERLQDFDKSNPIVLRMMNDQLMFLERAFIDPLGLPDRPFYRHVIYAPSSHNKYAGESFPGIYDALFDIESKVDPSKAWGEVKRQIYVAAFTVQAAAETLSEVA
Outline: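 C4-2 cells were incubated 1 h at 4 °C with 50 nM AF488-labelled peptide PSM-0183 plus increasing test compound concentrations, then washed twice in ice-cold buffer. Median fluorescence in the AF488 channel was read by flow cytometry. IC50/pIC50 was derived by 4PL fitting of MFI versus concentration.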

[2] = target: T2, Fc-fusion protein of human PSMA (hPSMA-Fc) (Homo sapiens, UniProt Q04609); assay: Surface plasmon resonance assay (Biacore T200, single cycle kinetic); format: binding; details: hPSMA-Fc, 25° C., read-out: pKD CAT (converted)
T2 construct: purchased Acro Biosystems PSA-H5264
T2 sequence (Q04609 44-750 limits assumed): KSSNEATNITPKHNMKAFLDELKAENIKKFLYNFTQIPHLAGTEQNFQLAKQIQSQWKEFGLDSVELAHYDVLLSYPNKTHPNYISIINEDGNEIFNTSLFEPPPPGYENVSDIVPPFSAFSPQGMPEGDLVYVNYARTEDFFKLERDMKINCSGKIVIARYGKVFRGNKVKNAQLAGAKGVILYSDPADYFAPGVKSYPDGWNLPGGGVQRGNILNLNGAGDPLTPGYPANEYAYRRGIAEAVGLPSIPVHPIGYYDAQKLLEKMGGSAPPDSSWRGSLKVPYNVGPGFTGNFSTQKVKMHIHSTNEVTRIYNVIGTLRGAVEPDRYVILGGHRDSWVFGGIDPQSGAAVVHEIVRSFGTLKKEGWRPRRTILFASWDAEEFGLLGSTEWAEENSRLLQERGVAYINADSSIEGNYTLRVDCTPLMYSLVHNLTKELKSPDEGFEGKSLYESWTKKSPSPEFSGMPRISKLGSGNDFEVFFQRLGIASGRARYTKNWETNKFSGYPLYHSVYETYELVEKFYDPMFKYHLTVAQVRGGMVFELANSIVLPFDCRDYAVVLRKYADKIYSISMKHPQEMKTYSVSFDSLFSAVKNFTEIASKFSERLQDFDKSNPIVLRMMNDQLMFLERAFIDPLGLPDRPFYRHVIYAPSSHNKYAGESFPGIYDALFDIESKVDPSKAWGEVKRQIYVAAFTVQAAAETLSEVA
Outline: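 hPSMA-Fc was captured (~1000 RU) on an Fc-binding-peptide CM5 chip, and compounds were run in single cycle kinetic mode at 25° C in HBST with 0.1% DMSO. Double-blank-corrected sensorgrams were fitted to a 1:1 Langmuir model to give KD, reported as pKD.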

[3] = FACS binding, PSMA-expressing C4-2 cells, pIC50 category
[4] = pIC50 category of FACS binding, C4-2 cells
[5] = pKD category for PSMA SPR activity assay

| IC50 [1, 3] [µM] | Kd ([2]; PSMA SPR assay, pKD category) [µM] | IC50 [1, 4] [µM] | Kd [2, 5] [µM] | SMILES |
| --- | --- | --- | --- | --- |
| – | – | < 0.2 | < 0.0126 | CC(=O)N[C@H](C(=O)NC(C)(C)C(=O)N[C@@H](Cc1ccccc1)C(=O)N[C@H]1CSSC[C@@H](C(=O)N[C@H](C(=O)N[C@@H](CCC(N)=O)C(N)=O)C(C)(C)C)NC(=O)[C@H](CC(N)=O)NC(=O)C(C)(C)NC(=O)[C@H](CCCNC(=N)N)NC(=O)[C@H](CCCCN)NC1=O)[C@@H](C)O [PSM-0540, Ac-Thr-Aib-Phe-[Cys-Lys-Arg-Aib-Asn-Cys]-Tle-Gln-NH2] (Ac-T[Aib]FCKR[Aib]NC[Tle]Q-NH2; disulfide 4-9) |
| – | – | 0.2 to 1.26 | 0.126 to 0.501 | CC(C)C[C@@H](C(=O)N[C@H](C(N)=O)[C@@H](C)O)N(C)C(=O)[C@@H]1CSSC[C@H](NC(=O)[C@H](Cc2ccc(Cl)cc2)NC(=O)C(C)(C)NC(=O)[C@@H](NC(=O)CC2CCN(C(=O)CN3CCN(CC(=O)O)CCN(CC(=O)O)CCN(CC(=O)O)CC3)CC2)[C@@H](C)O)C(=O)N[C@@H](CCCCN)C(=O)N[C@@H](CCCNC(=N)N)C(=O)NC(C)(C)C(=O)N[C@@H](CC(N)=O)C(=O)N1 [PSM-0497, DOTA-Cmp-Thr-Aib-Pcf-[Cys-Lys-Arg-Aib-Asn-Cys]-Nml-Thr-NH2] ({DOTA}-[X1]T[Aib][Phe(4-Cl)]CKR[Aib]NC[NMeL]T-NH2; disulfide 5-10) |
| 0.2 to 1.26 | < 0.0126 | – | – | C[C@@H](O)[C@H](NC(=O)[C@@H](NC(=O)[C@@H]1CSSC[C@H](NC(=O)[C@H](Cc2c[nH]c3cc(Cl)ccc23)NC(=O)C(C)(C)NC(=O)[C@@H](NC(=O)CC2CCN(C(=O)CN3CCN(CC(=O)O)CCN(CC(=O)O)CCN(CC(=O)O)CC3)CC2)[C@@H](C)O)C(=O)N[C@@H](CCCCN)C(=O)N[C@@H](CCCNC(N)=O)C(=O)NC(C)(C)C(=O)N[C@@H](CC(N)=O)C(=O)N1)C(C)(C)C)C(N)=O [PSM-0304, DOTA-Cmp-Thr-Aib-6Clw-[Cys-Lys-Cit-Aib-Asn-Cys]-Tle-Thr-NH2] ({DOTA}-[X1]T[Aib][Trp(6-Cl)]CK[Cit][Aib]NC[Tle]T-NH2; disulfide 5-10) |
| – | – | < 0.2 | 0.0126 to 0.126 | CNCCNC(=O)[C@@H](NC(=O)[C@@H]1CSSC[C@H](NC(=O)[C@H](Cc2ccc(Cl)cc2)NC(=O)C(C)(C)NC(=O)[C@@H](NC(=O)CC2CCN(C(=O)CN3CCN(CC(=O)O)CCN(CC(=O)O)CCN(CC(=O)O)CC3)CC2)[C@@H](C)O)C(=O)N[C@@H](CCCCN)C(=O)N[C@@H](CCCNC(=N)N)C(=O)NC(C)(C)C(=O)N[C@@H](CC(N)=O)C(=O)N1)C(C)(C)C [PSM-0456, DOTA-Cmp-Thr-Aib-Pcf-[Cys-Lys-Arg-Aib-Asn-Cys]-Tle-en(Me)] ({DOTA}-[X1]T[Aib][Phe(4-Cl)]CKR[Aib]NC[Tle]-NHCH2CH2NHMe; disulfide 5-10) |

More lines, now with the values behind:

| SMILES | IC50 [1, 3] [µM] | Kd ([2]; PSMA SPR assay, pKD category) [µM] | IC50 [1, 4] [µM] | Kd [2, 5] [µM] |
| --- | --- | --- | --- | --- |
| C[C@@H](O)[C@H](NC(=O)[C@@H](NC(=O)[C@@H]1CSSC[C@H](NC(=O)[C@H](Cc2ccc(Cl)cc2)NC(=O)C(C)(C)NC(=O)[C@@H](NC(=O)CC2CCN(C(=O)CN3CCN(CC(=O)O)CCN(CC(=O)O)CCN(CC(=O)O)CC3)CC2)[C@@H](C)O)C(=O)N[C@@H](CCCCN)C(=O)N[C@@H](CCCNC(=N)N)C(=O)N[C@](C)(CO)C(=O)N[C@@H](CC(N)=O)C(=O)N1)C(C)(C)C)C(N)=O [PSM-0314, DOTA-Cmp-Thr-Aib-Pcf-[Cys-Lys-Arg-ams-Asn-Cys]-Tle-Thr-NH2] ({DOTA}-[X1]T[Aib][Phe(4-Cl)]CKR[d(αMeS)]NC[Tle]T-NH2; disulfide 5-10) | < 0.2 | < 0.0126 | – | – |
| C[C@@H](O)[C@H](NC(=O)CCC(=O)NCCCOCCOCCOCCCNC(=O)CN1CCN(CC(=O)O)CCN(CC(=O)O)CCN(CC(=O)O)CC1)C(=O)NC(C)(C)C(=O)N[C@@H](Cc1ccccc1)C(=O)N[C@H]1CSSC[C@@H](C(=O)N[C@H](C(=O)N[C@H](C(=O)N[C@@H](CC(=O)O)C(N)=O)[C@@H](C)O)C(C)(C)C)NC(=O)[C@H](CC(N)=O)NC(=O)C(C)(C)NC(=O)[C@H](CCCNC(=N)N)NC(=O)[C@H](CCCCN)NC1=O [PSM-0398, DOTA-Ttds-Thr-Aib-Phe-[Cys-Lys-Arg-Aib-Asn-Cys]-Tle-Thr-Asp-NH2] ({X3-Suc}-T[Aib]FCKR[Aib]NC[Tle]TD-NH2; disulfide 4-9) | – | – | < 0.2 | < 0.0126 |
| CC(=O)N[C@H](C(=O)NC(C)(C)C(=O)N[C@@H](Cc1ccccc1)C(=O)N[C@H]1CSSC[C@@H](C(=O)N[C@H](C(=O)N[C@H](C(=O)NCCCOCCOCCOCCCNC(=O)CCC(=O)N[C@H](CCCCNC(=O)CN2CCN(CC(=O)O)CCN(CC(=O)O)CCN(CC(=O)O)CC2)C(N)=O)[C@@H](C)O)C(C)(C)C)NC(=O)[C@H](CC(N)=O)NC(=O)C(C)(C)NC(=O)[C@H](CCC(N)=O)NC(=O)[C@H](CCCCN)NC1=O)[C@@H](C)O [PSM-0303, Ac-Thr-Aib-Phe-[Cys-Lys-Gln-Aib-Asn-Cys]-Tle-Thr-Ttds-lys(DOTA)-NH2] (Ac-T[Aib]FCKQ[Aib]NC[Tle]T-{TtdsdLys(DOTA)NH2}; disulfide 4-9) | 0.2 to 1.26 | 0.0126 to 0.126 | – | – |

From patent US20260083865A1, “PROSTATE SPECIFIC MEMBRANE ANTIGEN (PSMA) LIGANDS AND USE THEREOF” (priority 2022, published 2026)
